The results in this text go back to EP1077677B1, “PROCESS FOR THE MANUFACTURE OF A BIOLOGICALLY ACTIVE COMPOSITION” (JAGOTEC AG, priority 1998, dated 1999).

This series can be described thus: physchem. Format: physicochemical. The conditions noted are these: water. The method, then:
In order to determine its water solubility, an excess of metronidazole was added to water, after which the mixture was stirred for 3 days at room temperature.

In brackets after ≈: the same amount, converted by molar mass.

Broadly, the thermodynamic solubility is solubility found after equilibrating the solid with the medium. Consider `Cc1ncc([N+](=O)[O-])n1CCO` [metronidazole], for which the thermodynamic solubility at 72 h stood at 8200 µg/mL (≈ 47.9 mM).
